Experimental data: patent US20060148858A1, “1, 2-Azole derivatives with hypoglycemic and hypolipidemic activity” (priority 2002, published 2006)
Where two headings read alike, the source gives them in different places.

Columns and labels:
[1] = test system: KKAY mice; assay: Hypoglycemic and hypolipidemic actions in mice (Test Example 1); type: in vivo; details: Mus musculus, po, 96 h, 0.005% in powdery diet, four days, non-treated group taken as 100%
Procedure: Test compounds were mixed in a powdery diet (CE-2, Japan Clea) at the concentration of 0.005%, and freely given to KKAY mice (9 to 12 weeks old, 5 mice in a group), a model of obese and non-insulin dependent diabetes (type 2 diabetes), for four days. During this period, water was given freely. Blood was sampled from orbital venous plexus, and glucose and triglyceride levels in plasma separated from blood were determined enzymatically using L type Wako Glu2 (Wako Pure Chemical Industries, Ltd.) or L type Wako TG·H (Wako Pure Chemical Industries, Ltd.), respectively.
In the table, “hypoglycemic action (%)” means the rate of decrease (%) in the blood glucose level of the treated group when the blood glucose level of the non-treated group is taken as 100%. In addition, the “hypolipidemic action (%)” means the rate of decrease (%) in the blood triglyceride level of the treated group when the blood triglyceride level of the non-treated group is taken as 100%.

[2] = rate of decrease in blood glucose level, read-out: Hypoglycemic action (%)
[3] = rate of decrease in blood triglyceride level, read-out: Hypolipidemic action (%)

Compound	inhibition in vivo at 0.005 % in diet [1, 2] [%]	inhibition in vivo at 0.005 % in diet [1, 3] [%]	melting point [°C]
COc1cccc(CC(=O)O)c1OCCCc1cn(-c2ncc(C(F)(F)F)cc2Cl)nc1C(C)C [Example 217, [2-(3-{1-[3-chloro-5-(trifluoromethyl)-2-pyridyl]-3-isopropyl-1H-pyrazol-4-yl}propoxy)-3-methoxyphenyl]acetic acid]	34	18	96 to 97
CCc1cccc(CC(=O)O)c1OCCCc1cn(-c2ccc(Br)cn2)nc1C(C)C [Example 247, (2-{3-[1-(5-bromo-2-pyridinyl)-3-isopropyl-1H-pyrazol-4-yl]propoxy}-3-ethylphenyl)acetic acid]	25	34	152
CC(C)c1nn(-c2ccc(C(F)(F)F)cn2)cc1CCCOc1c(F)cccc1CC(=O)O [Example 207, [3-fluoro-2-(3-{3-isopropyl-1-[5-(trifluoromethyl)-2-pyridyl]-1H-pyrazol-4-yl}propoxy)phenyl]acetic acid]	49	72	140 to 141
CC(C)c1nn(-c2ccc(C(F)(F)F)cn2)cc1CCCOc1ccccc1CC(=O)O [Example 179, [2-(3-{3-isopropyl-1-[5-(trifluoromethyl)-2-pyridyl]-1H-pyrazol-4-yl}propoxy)phenyl]acetic acid]	34	37	132 to 133
COc1cccc(CC(=O)O)c1OCCCCc1cn(-c2ccc(C(F)(F)F)cn2)nc1C(C)C [Example 180, [2-(4-{3-isopropyl-1-[5-(trifluoromethyl)-2-pyridyl]-1H-pyrazol-4-yl}butoxy)-3-methoxyphenyl]acetic acid]	32	36	144 to 145
CCc1cccc(CC(=O)O)c1OCCCc1cn(-c2ccc(C(F)(F)F)cn2)nc1C(CC)CC [Example 241, [3-ethyl-2-(3-{3-(1-ethylpropyl)-1-[5-(trifluoromethyl)-2-pyridinyl]-1H-pyrazol-4-yl}propoxy)phenyl]acetic acid]	38	27	130 to 131
CCCC(C)c1nn(-c2ccc(C(F)(F)F)cn2)cc1CCCOc1c(C)cccc1CC(=O)O (stereo not shown) [Example 222, [3-methyl-2-(3-{3-(1-methylbutyl)-1-[5-(trifluoromethyl)-2-pyridyl]-1H-pyrazol-4-yl}propoxy)phenyl]acetic acid]	36	54	147 to 148
CCOc1nn(-c2ccc(C(F)(F)F)cn2)cc1CCCOc1cccc(OC)c1CCC(=O)O [Example 148, 3-[2-(3-{3-ethoxy-1-[5-(trifluoromethyl)-2-pyridyl]-1H-pyrazol-4-yl}propoxy)-6-methoxyphenyl]propionic acid]	–	–	110 to 111
CCOc1cc(OCCCCc2cc(-c3ccc(C(F)(F)F)cc3)no2)ccc1CCC(=O)O [Example 21, 3-[2-ethoxy-4-(4-{3-[4-(trifluoromethyl)phenyl]-5-isoxazolyl}butoxy)phenyl]propionic acid]	–	–	105 to 106
CC(C)c1nn(-c2ccc(C(F)(F)F)cc2)cc1COc1cccc(CC(=O)O)c1 [Example 178, [3-({3-isopropyl-1-[4-(trifluoromethyl)phenyl]-1H-pyrazol-4-yl}methoxy)phenyl]acetic acid]	–	–	92 to 93
O=C(O)CCc1ccc(OCCCCc2cc(-c3ccc(C(F)(F)F)cc3)no2)cc1 [Example 14, 3-[4-(4-{3-[4-(trifluoromethyl)phenyl]-5-isoxazolyl}butoxy)phenyl]propionic acid]	–	–	130 to 131
O=C(O)c1cc(OCCCc2cc(-c3ccc(C(F)(F)F)cc3)no2)nn1-c1ccccc1 [Example 8, 1-phenyl-3-(3-{3-[4-(trifluoromethyl)phenyl]-5-isoxazolyl}propoxy)-1H-pyrazole-5-carboxylic acid]	–	–	145 to 146
Cc1nn(-c2ccc(C(F)(F)F)cn2)cc1COc1cccc(CC(=O)O)c1 [Example 149, [3-({3-methyl-1-[5-(trifluoromethyl)-2-pyridyl]-1H-pyrazol-4-yl}methoxy)phenyl]acetic acid]	–	–	142 to 143
CCc1cccc(CC(=O)O)c1OCCCc1cn(-c2ccc(Br)cn2)nc1C(CC)CC [Example 355, (2-{3-[1-(5-bromo-2-pyridinyl)-3-(1-ethylpropyl)-1H-pyrazol-4-yl]propoxy}-3-ethylphenyl)acetic acid]	–	–	123
O=C(O)c1ccc(OCCCc2cc(-c3ccc(C(F)(F)F)cc3)no2)cc1 [Example 2, 4-(3-{3-[4-(trifluoromethyl)phenyl]-5-isoxazolyl}propoxy)benzoic acid]	–	–	221 to 222
CCCc1nn(-c2ccc(C(F)(F)F)cn2)cc1CCCOc1c(CC(=O)O)cnn1C [Example 321, [1-methyl-5-(3-{3-propyl-1-[5-(trifluoromethyl)-2-pyridinyl]-1H-pyrazol-4-yl}propoxy)-1H-pyrazol-4-yl]acetic acid]	–	–	136 to 138
CCOc1nn(-c2ccc(C(F)(F)F)cn2)cc1CCCOc1cccc(CCC(=O)O)c1 [Example 33, 3-[3-(3-{3-ethoxy-1-[5-(trifluoromethyl)-2-pyridyl]-1H-pyrazol-4-yl}propoxy)phenyl]propionic acid]	–	–	88 to 89
CCCc1nn(-c2ccc(C(F)(F)F)cn2)cc1CCCOc1ccc(F)c(CC(=O)O)c1 [Example 90, [2-fluoro-5-(3-{3-propyl-1-[5-(trifluoromethyl)-2-pyridyl]-1H-pyrazol-4-yl}propoxy)phenyl]acetic acid]	–	–	111 to 112
O=C(O)CCc1cc(OCCCc2cn(-c3ccc(C(F)(F)F)cn3)nc2OCc2ccccc2)nn1-c1ccccc1 [Example 71, 3-[3-(3-{3-(benzyloxy)-1-[5-(trifluoromethyl)-2-pyridinyl]-1H-pyrazol-4-yl}propoxy)-1-phenyl-1H-pyrazol-5-yl]propanoic acid]	–	–	159 to 161
COc1cccc(CC(=O)O)c1OCCCc1cn(-c2ccc(NS(C)(=O)=O)cn2)nc1C(C)C [Example 269, (3-methoxy-2-{3-[3-isopropyl-1-(5-methylsulfonylamino-2-pyridyl)-1H-pyrazol-4-yl]propoxy}phenyl)acetic acid]	–	–	176 to 177
COc1cccc(CC(=O)O)c1OCCCc1cn(-c2cc(C(F)(F)F)ccn2)nc1C(C)C [Example 363, [2-(3-{3-isopropyl-1-[4-(trifluoromethyl)-2-pyridinyl]-1H-pyrazol-4-yl}propoxy)-3-methoxyphenyl]acetic acid]	–	–	127 to 128
CC(C)c1nn(-c2ccc(C(F)(F)F)cn2)cc1CCCCOc1ccc(CCC(=O)O)cc1 [Example 55, 3-[4-(4-{3-isopropyl-1-[5-(trifluoromethyl)-2-pyridinyl]-1H-pyrazol-4-yl}butoxy)phenyl]propanoic acid]	–	–	144 to 145
CCC(C)c1nn(-c2ccc(C(F)(F)F)cn2)cc1CCCOc1c(C)cccc1CC(=O)O (stereo not shown) [Example 219, [3-methyl-2-(3-{3-(1-methylpropyl)-1-[5-(trifluoromethyl)-2-pyridyl]-1H-pyrazol-4-yl}propoxy)phenyl]acetic acid]	–	–	134 to 135
CCc1cccc(CC(=O)O)c1OCCCc1cn(-c2ncc(C(F)(F)F)cc2Cl)nc1C(C)C [Example 249, [2-(3-{1-[3-chloro-5-(trifluoromethyl)-2-pyridinyl]-3-isopropyl-1H-pyrazol-4-yl}propoxy)-3-ethylphenyl]acetic acid]	–	–	93 to 95
CCCc1nn(-c2ccc(C(F)(F)F)cn2)cc1COc1ccc(CCC(=O)O)c(C)c1 [Example 121, 3-[2-methyl-4-({3-propyl-1-[5-(trifluoromethyl)-2-pyridyl]-1H-pyrazol-4-yl}methoxy)phenyl]propionic acid]	–	–	129 to 130
COc1cccc(CC(=O)O)c1OCCCc1cn(-c2nnc(C(F)(F)F)s2)nc1C(C)C [Example 344, [2-(3-{3-isopropyl-1-[5-(trifluoromethyl)-1,3,4-thiadiazol-2-yl]-1H-pyrazol-4-yl}propoxy)-3-methoxyphenyl]acetic acid]	–	–	114 to 115
Cc1nn(-c2ccc(C(F)(F)F)cn2)cc1CCCOc1cccc(OC(C)(C)C(=O)O)c1 [Example 130, 2-methyl-2-[3-(3-{3-methyl-1-[5-(trifluoromethyl)-2-pyridyl]-1H-pyrazol-4-yl}propoxy)phenoxy]propionic acid]	–	–	107 to 108
CCc1cccc(CC(=O)O)c1OCCCc1cn(-c2ccc(C(F)(F)F)nn2)nc1C(CC)CC [Example 341, [3-ethyl-2-(3-{3-(1-ethylpropyl)-1-[6-(trifluoromethyl)pyridazin-3-yl]-1H-pyrazol-4-yl}propoxy)phenyl]acetic acid]	–	–	93 to 94
CC(C)c1nn(-c2ccc(C(F)(F)F)cn2)cc1COc1cc(CCC(=O)O)n(C)n1 [Example 27, 3-(3-{3-isopropyl-1-[5-(trifluoromethyl)-2-pyridyl]-1H-pyrazol-4-ylmethoxy}-1-methyl-1H-pyrazol-5-yl)propionic acid]	–	–	141 to 142
